Reference: patent EP2823816A1, “Inhibitors of Neuropilin and use thereof for the treatment of Neuropilin-related diseases” (Tragex Pharma, priority 2013, dated 2015)

How the values were obtained:
[1] = test system: MDA-MB-231 cancer cells; test: Motility assay (videomicroscopy); assay type: cell-based, human; conditions: MDA-MB-231, 24 h, at the IC50 of the proliferation assay, Figure 4
Method: Endothelial cells (HUVEC) and breast cancer cells (MDA-MB-231) were seeded in 35 mm diameter tissue culture dishes at 3×10^4 and 6×10^4 cells per dish respectively and treated separately with DMSO (control) and compound 1 of the invention (treatment) for 24 h, at the concentration of IC50 obtained with the proliferation assay.
The dishes were placed in an enclosed warming incubator on the motorized stage of a computer-controlled Eclipse Ti inverted microscope (Nikon Instruments Europe) equipped with a CCD Cool- SNAP HQ2 camera (Roper Scientific, USA) and a PC workstation. The incubator allowed samples to be kept at 37°C in a humidified atmosphere containing 5% CO2, 95% air. Phase images were recorded at 100× every 5 min simultaneously over several fields from 0 till 24 h (288 frames). Cell motility was tracked and analyzed for at least 25 cells in each field over three independent experiments. The total distance of migration and the speed of migration were analyzed. The degree of persistence of movement was defined as the ratio between the linear distance and the total distance covered by the cells. Image acquisition and analyses were carried out using Metamorph7 software (Universal Imaging).

[2] = test system: CEM; test: WST-1 proliferation / cytotoxic test; assay type: cell-based; conditions: Homo sapiens, CCRF-CEM, Acute lymphoblastic leukemia, wst-1 cytotoxic test, 72 h
Method: (§1) After observation of cells under the microscope, old media were removed and the adherent cells washed gently twice with PBS (Phosphate Buffer Saline, -Ca^2+, -Mg^2+, Lonza cat n°: 17-512F/12). All cells were detached with 3 ml of trypsin/EDTA (chelator of calcium and magnesium ions) (Lonza), incubated for 5 min at 37°C, and examined using a microscope to ensure that the cells were detached and floating. Then, 3 ml TNS (Trypsin Neutralizing Solution, Lonza, France, cat n° CC-5002) or of culture medium were added to inactivate the trypsin, and the cell suspension was transferred in a falcon tube and centrifuged for 7 min at 1400 rpm. The supernatant was removed and the cell pellet resuspended in […] of culture medium. 50 µL of this solution were transferred in 20 µL of isotonic solution and the cells were counted by count cellular (Beckman Coulter). At day 0, 200 µL of cellular suspension (3.10^3 cells/well for the HUVEC cells, breast cancer cells (MDA-MB-231 1.10^4 cells/well, MDA-MB-468 2.10^4 cells/well,); cervical cancer cells (HeLa 5.000 cells/well); colon cancer cells (HCT-116 5.10^3 cells/well, HCT-29 1.1.10^4 cells/well); pancreas cancer cells (Panc-10.5 1.5.10^4 cells/well); brain cancer cells (U87 5.10^3 cells/well, SH-SYSY 8.10^4 cells/well); Lung cancer cells (A 549 1.10^4 cells/well, NCI-H460 1.10^4 cells/well); fibrosarcoma cells (HT 1080 8.10^3 cells/well); Burkitt's lymphoma cells (DAUDI 3.10^4 cells/well); acute lymphoblastic leukemia cells (CEM 3.10^4 cells/well); chronic myeloid leukemia cells (ERY 5.10^4 cells/well); mantle cell lymphoma (GRANTA 1.10^5 cells/well); B lymphoma cells (VAL 1.10^5 cells/well)) were then plated on 96 well plates and incubated at 37°C in a humidified atmosphere of 5% CO2 for 24 h.
(§2) At day 1, the compound 1 of the invention was added at increasing concentrations (0.1 - 10 µM) in the wells and plates were incubated at 37°C in a humidified atmosphere of 5% CO2 for 72 h.
(§3) The cell proliferation WST-1 assay is a colorimetric assay for the quantification of cell proliferation and viability, based on the enzymatic cleavage of the tetrazolium salt WST-1 added to the culture medium, to a water soluble colored formazan dye, detected by absorbance at 450 nm, by mitochondrial succinate-tetrazoliumreductase in viable cells. An augmentation in enzyme activity will then lead to an increase in the amount of formazan dye formed, which directly correlates to the number of metabolically active cells in the culture.
(§4) After an incubation period of 72 h, at day 4, were prepared the 19 mL medium with reagent WST-1 1mL ([…]). The medium was removed from the 96 microplate and 200 µL of solution WST-1/medium were added for each well. The cells were incubated at 37°C in a humidified atmosphere of 5% CO2 for 1h30 and the absorbance at 450-655 nm was measured by Microplate Manager 5.2 (Bio-Rad).

[3] = test system: VAL; test: WST-1 proliferation / cytotoxic test; assay type: cell-based; conditions: Homo sapiens, B lymphoma, wst-1 cytotoxic test, 72 h
Method: as §1, §2, §3, §4

[4] = test system: DAUDI; test: WST-1 proliferation / cytotoxic test; assay type: cell-based; conditions: Homo sapiens, Burkitt's lymphoma, wst-1 cytotoxic test, 72 h
Method: as §1, §2, §3, §4

[5] = test system: HeLa; test: WST-1 proliferation / cytotoxic test; assay type: cell-based; conditions: Homo sapiens, Cervical, wst-1 cytotoxic test, 72 h
Method: as §1, §2, §3, §4

[6] = test system: Panc-10.5; test: WST-1 proliferation / cytotoxic test; assay type: cell-based; conditions: Homo sapiens, Pancreas, wst-1 cytotoxic test, 72 h
Method: as §1, §2, §3, §4

[7] = In vivo xenograft study, body weight; conditions: NOD-SCID IL-2Rγ-/- mice, both tested doses (10 or 50 mg/kg), oral gavage three times a week, Figure 5A
Method: Female (NOD-SCID, IL-2Rγ^-/-) mice 5-6 weeks old were injected subcutaneously with MDA-MB-231 cells (5.10^6) at a single site on their right flanks. Tumors were allowed to grow to about 100 mm^3 before being pair-matched by tumor size into treatment groups (8 mice/group). One group was treated with vehicles (8 mice receiving cremofor 12.5%/ethanol 12.5%/ H2O), one group was treated with 10 mg/kg of the compound 1 of the invention (8 mice receiving compound 1 + cremofor 12.5%/ethanol 12.5%/ H2O), one group was treated with 50 mg/kg of the compound 1 of the invention (8 mice receiving compound 1+ cremofor 12.5%/ethanol 12.5%/ H2O). All groups received 3 times a week by oral gavages approximately 100 µL of a solution containing the compound 1 of the invention. Mice were weighed regularly to assess toxicity of the treatments and the tumors were measured with calipers (width x width x length x Pi/6) to determine tumor growth. Mice survival was assessed during the study and metastatic development was investigated in lung, spleen and liver.

[8] = test system: HUVEC cells; test: Tube formation assay; assay type: cell-based; conditions: HUVEC on collagen, VEGF-A165-stimulation, Figure 2
Method: Collagen type I (1 mg/ml, BD) was mixed with 0.1N NaOH, 0.1% bicarbonate and 10X in medium EBM-2 and kept on ice until placed into the wells. The assay was prepared in 96-well plate format and the bottom layer of collagen was formed by adding 70 µL of the solution per well and allowing subsequent gelation at 37°C for 30 min. The HUVEC cells were then seeded on collagen at […] cells per well. After monolayer formation (one day), a second layer of collagen 200 µL per well was prepared according to the same protocol and gently placed on top of the cell layer. The compounds of the invention were added to the cells at the adhesion step (concentration corresponding to the Inhibitory Concentration 50 (IC50)). After 24 and 48 h of incubation at 37°C, tube formation was observed and pictures were taken.

SMILES: CCOc1ccccc1NC(=O)c1ccc(C)c(S(=O)(=O)Nc2ccc(C)cc2)c1 [Compound 1, N-(2-ethoxyphenyl)-4-methyl-3-(N-(p-tolyl)sulfamoyl)benzamide]
- motility of cancer cells (migration speed) [1]: significant anti-migratory effect
- IC50 [2]: 100 ± 80 nM
- IC50 [3]: 1000 ± 60 nM
- IC50 [4]: 500 ± 20 nM
- IC50 [5]: 200 ± 60 nM
- IC50 [6]: 500 ± 40 nM
- body weight (toxicity) [7]: no significant change in body weight
- formation of new blood vessels (tube formation) [8]: effectively inhibits the formation of new blood vessels
